Data: US20260193268A1, “TRICYCLIC PI3Ka INHIBITOR, PREPARATION METHOD THEREFOR, AND PHARMACEUTICAL USE THEREOF” (WIGEN BIOMEDICINE TECHNOLOGY (SHANGHAI) CO., LTD., priority 2022, published 2026)
Like-named read-outs stand apart in the source and are kept apart here.

How the values were obtained:
[1] = system: MCF-7 cells (with PI3Kα E545K mutation); test: In vitro inhibition of MCF-7 cell proliferation (CellTiter-Lumi); type: cell-based
How it was run: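 Growth IC50 derived from ATP luminescence (CellTiter-Lumi) after 144 h exposure of MCF-7 cells carrying PI3Kα E545K, plated 2000 cells/well and dosed with serial dilutions one day after seeding.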

[2] = system: HCC1954 cells (with PI3Kα H1047R mutation); test: In vitro inhibition of HCC1954 cell proliferation (CellTiter-Lumi); type: cell-based; conditions: HCC1954 cells, 144 h, CellTiter-Lumi
Experimental: Assay for In Vitro Inhibition of HCC1954 Cell Proliferation by Compounds of the Present Disclosure
The growth of the cells was evaluated, and the IC50 for the inhibition of cell growth by the compounds was calculated.

[3] = Homo sapiens, MCF7, 144 h, class symbols, read-out: Inhibitory activity against MCF-7 cells (IC50), class symbols
[4] = Homo sapiens, HCC1954, 144 h, class symbols, read-out: Inhibitory activity against HCC1954 cells (IC50), class symbols
[5] = Homo sapiens, MCF7, 144 h, numeric values, read-out: Inhibitory activity against MCF-7 cells (IC50)
[6] = Homo sapiens, HCC1954, 144 h, numeric values, read-out: Inhibitory activity against HCC1954 cells (IC50)

Row | SMILES | IC50 [1, 3] [nM] | IC50 [2, 4] [nM] | other results
1 | CC(=O)NC(C)(C)C=C(C#N)C(=O)Nc1ccc(N2CC(N3CCN(c4ccc5c(c4)-c4nc(-c6nc(C)nn6C(C)C)cn4CCO5)CC3)C2)cc1 [Compound 375] | < 50 | < 50 | –
2 | CN(C1CCC1)C(C)(C)C=C(C#N)C(=O)Nc1ccc(N2CC(N3CCN(c4ccc5c(c4)-c4nc(N6C(=O)OC[C@H]6C(F)F)cn4CCO5)CC3)C2)cc1 [Compound 156] | – | – | IC50 [1, 5]: 19 nM; IC50 [2, 6]: 49 nM
3 | CC(=O)OCNC(C)(C)C=C(C#N)C(=O)Nc1ccc(N2CC(N3CCN(c4ccc5c(c4)-c4nc(N6C(=O)OC[C@H]6C(F)F)cn4CCO5)CC3)C2)cc1 [Compound 328] | < 50 | < 50 | –
4 | Cc1nc(-c2cn3c(n2)-c2cc(N4CCN(C5CN(c6ccc(NC(=O)C(C#N)=CC(C)(C)N)cc6)C5)CC4)ccc2OCC3)n(C(C)C)n1 [Compound 336] | < 50 | < 50 | –
5 | CC#CC(=O)Nc1ccc(N2CC(N3CCN(c4ccc5c(c4)-c4nc(N6C(=O)OC[C@H]6C(F)F)cn4CCO5)CC3)C2)cc1 [Compound 132] | – | – | IC50 [1, 5]: 3.3 nM; IC50 [2, 6]: 45 nM
6 | CC(C)(C=C(C#N)C(=O)Nc1ccc(N2CC(N3CCN(c4ccc5c(c4)-c4nc(N6C(=O)OC[C@H]6C(F)F)cn4CCO5)CC3)C2)cc1)NC(=O)OC(C)(C)C [Compound 324A] | – | – | IC50 ([1]; 144 h, numeric values, read-out: Inhibitory activity against MCF-7 cells (IC50)): 0.1 nM; IC50 ([2]; numeric values, read-out: Inhibitory activity against HCC1954 cells (IC50)): 0.1 nM
7 | CC(C)(C=C(C#N)C(=O)Nc1ccc(N2CC(N3CCN(c4ccc5c(c4)-c4nc(N6C(=O)OC[C@H]6C(F)F)cn4CCO5)CC3)C2)c(F)c1)NC1(C)COC1 [Compound 384] | < 50 | < 50 | –
8 | C=CC(=O)Nc1ccc(N2CC(N3CCN(c4ccc5c(c4)-c4nc(-c6nc(C)nn6C(C)C)cn4CCO5)CC3)C2)cc1Cl [Compound 377] | < 50 | < 50 | –
9 | COC(C)(C)C=C(C#N)C(=O)Nc1ccc(N2CC(N3CCN(c4ccc5c(c4)-c4nc(N6C(=O)OC[C@H]6C(F)F)cn4CCO5)CC3)C2)c(F)c1 [Compound 231] | < 50 | < 50 | –
10 | C=CC(=O)Nc1ccc(N2CC3(CCN(c4ccc5c(c4)-c4nc(N6C(=O)OC[C@H]6C(F)F)cn4CCO5)CC3)C2)cc1 [Compound 18] | – | – | IC50 [1, 5]: 25 nM; IC50 [2, 6]: 68 nM
11 | C=CC(=O)Nc1ccc2c(c1)CCN(C1CCN(c3ccc4c(c3)-c3nc(N5C(=O)OC[C@H]5C(F)F)cn3CCO4)CC1)C2 [Compound 204] | < 50 | 50 to 100 | –
12 | CC(C)(C)C=C(C#N)C(=O)Nc1ccc(N2CC(N3CCN(c4cc(F)c5c(c4)-c4nc(N6C(=O)OC[C@H]6C(F)F)cn4CCO5)CC3)C2)cc1 [Compound 316] | < 50 | < 50 | –
13 | C=CC(=O)Nc1ccc(C#CC2CCN(c3ccc4c(c3)-c3nc(N5C(=O)OC[C@H]5C(F)F)cn3CCO4)CC2)cc1 [Compound 179] | 50 to 100 | 50 to 100 | –
14 | COCCNC(C)(C)C=C(C#N)C(=O)Nc1ccc(N2CC(N3CCN(c4ccc5c(c4)-c4nc(N6C(=O)OC[C@H]6C(F)F)cn4CCO5)CC3)C2)c(F)c1 [Compound 232] | < 50 | < 50 | –
15 | C=CC(=O)Nc1ccc(C2CN(c3ccc(-c4ccc5c(c4)-c4nc(N6C(=O)OC[C@H]6C(F)F)cn4CCO5)cc3)C2)cc1 [Compound 181] | < 50 | 50 to 100 | –
16 | C=CC(=O)N(C)c1ccc(N2CC(N3CCN(c4ccc5c(c4)-c4nc(N6C(=O)OC[C@H]6C(F)F)cn4CCO5)CC3)C2)cc1 [Compound 146] | – | – | IC50 [1, 5]: 6.6 nM; IC50 [2, 6]: 75 nM
17 | CC(C)(C=C(C#N)C(=O)Nc1ccc(N2CC(N3CCN(c4ccc5c(c4)-c4nc(N6C(=O)OC[C@H]6C(F)F)cn4CCO5)CC3)C2)cc1)N1CC2(CCOCC2)C1 [Compound 313] | < 50 | < 50 | –
18 | C=CC(=O)N1CCC(N2CCC(CN3CCN(c4ccc5c(c4)-c4nc(N6C(=O)OC[C@H]6C(F)F)cn4CCO5)CC3)CC2)CC1 [Compound 8] | – | – | IC50 [1, 5]: 63 nM; IC50 [2, 6]: > 1000 nM

Row | SMILES | IC50 [1, 3] [nM] | IC50 [2, 4] [nM] | other results
19 | C=CC(=O)N1CCC(C(=O)NCC(=O)N2CCN(c3ccc4c(c3)-c3nc(N5C(=O)OC[C@H]5C(F)F)cn3CCO4)CC2)CC1 [Compound 6] | – | – | IC50 [1, 5]: 99 nM; IC50 [2, 6]: 663 nM
20 | C=CC(=O)N1CCc2cc(N3CC(N4CCN(c5ccc6c(c5)-c5nc(N7C(=O)OC[C@H]7C(F)F)cn5CCO6)CC4)C3)cc(C#N)c21 [Compound 193] | < 50 | < 50 | –
21 | CC(C)(N)C=C(C#N)C(=O)Nc1ccc(N2CC(N3CCN(c4ccc5c(c4)-c4nc(N6C(=O)OC[C@H]6C(F)F)cn4CCO5)CC3)C2)cc1Cl [Compound 360] | < 50 | < 50 | –
22 | COCC#CC(=O)Nc1ccc(N2CC(N3CCN(c4ccc5c(c4)-c4nc(N6C(=O)OC[C@H]6C(F)F)cn4CCO5)CC3)C2)cc1 [Compound 168] | – | – | IC50 [1, 5]: 6.9 nM; IC50 [2, 6]: 4.9 nM
23 | COCCN1CCN(C(C)(C)C=C(C#N)C(=O)Nc2ccc(N3CC(N4CCN(c5ccc6c(c5)-c5nc(N7C(=O)OC[C@H]7C(F)F)cn5CCO6)CC4)C3)cc2)CC1 [Compound 305] | < 50 | < 50 | –
24 | C=CC(=O)Nc1ccc(N2CCC(C#Cc3ccc4c(c3)-c3nc(N5C(=O)OC[C@H]5C(F)F)cn3CCO4)CC2)cc1 [Compound 202] | < 50 | 50 to 100 | –
25 | C=CC(=O)N1CC(C2CCN(c3ccc(-c4ccc5c(c4)-c4nc(N6C(=O)OC[C@H]6C(F)F)cn4CCO5)cc3)CC2)C1 [Compound 199] | < 50 | 100 to 1000 | –
26 | COCCNC(C)(C)C=C(C#N)C(=O)Nc1ccc(N2CC(N3CCN(c4ccc5c(c4)-c4nc(N6C(=O)OC[C@H]6C(F)F)cn4CCO5)CC3)C2)nn1 [Compound 303] | < 50 | < 50 | –
27 | C=CC(=O)Nc1ncc(N2CC(N3CCN(c4ccc5c(c4)-c4nc(N6C(=O)OC[C@H]6C(F)F)cn4CCO5)CC3)C2)cn1 [Compound 162] | – | – | IC50 [1, 5]: 0.4 nM; IC50 [2, 6]: 3.4 nM
28 | CNC(C)(C)C=C(C#N)C(=O)Nc1ccc(N2CC(N3CCN(c4ccc5c(c4)-c4nc(N6C(=O)OC[C@H]6C(F)F)cn4CCO5)CC3)C2)cc1Cl [Compound 359] | < 50 | < 50 | –
29 | C=CC(=O)Nc1ccc(C2CN(C3CCN(c4ccc5c(c4)-c4nc(N6C(=O)OC[C@H]6C(F)F)cn4CCO5)CC3)C2)cc1 [Compound 160] | – | – | IC50 [1, 5]: 3.5 nM; IC50 [2, 6]: 47 nM
30 | CNC(C)(C)C=C(C#N)C(=O)Nc1ccc(N2CCC(N3CCN(c4ccc5c(c4)-c4nc(N6C(=O)OCC6C(F)F)cn4CCO5)CC3)C2)cc1 (stereo not shown) [Compound 215] | < 50 | < 50 | –
31 | CC(C)(C=C(C#N)C(=O)Nc1ccc(N2CC(N3CCN(c4ccc5c(c4)-c4nc(N6C(=O)OC[C@H]6C(F)F)cn4CCO5)CC3)C2)c(F)c1)N1CCOCC1 [Compound 222] | < 50 | < 50 | –
32 | CNc1cc2c(cc1N1CCN(C3CN(c4ccc(NC(=O)C(C#N)=CC(C)(C)C)cc4)C3)CC1)-c1nc(N3C(=O)OC[C@H]3C(F)F)cn1CCO2 [Compound 319] | < 50 | < 50 | –
33 | CC(C)n1ncnc1-c1cn2c(n1)-c1cc(N3CCN(C4CN(c5ccc(NC(=O)C(C#N)=CC(C)(C)C)cn5)C4)CC3)ccc1OCC2 [Compound 371] | < 50 | < 50 | –
34 | CN1CCN(C(C)(C)C=C(C#N)C(=O)Nc2ccc(N3CC(N4CCN(c5ccc6c(c5)-c5nc(N7C(=O)OC[C@H]7C(F)F)cn5CCO6)CC4)C3)cc2)CC1 [Compound 307] | < 50 | < 50 | –
35 | N#CC(=CC1(N)CC1)C(=O)Nc1ccc(N2CC(N3CCN(c4ccc5c(c4)-c4nc(N6C(=O)OC[C@H]6C(F)F)cn4CCO5)CC3)C2)c(F)c1 [Compound 235] | < 50 | < 50 | –
